Values after ≈ are worked out from the molar mass of the structure shown.
Assay: physchem
Conditions: pH 7.4 buffer

| SMILES | solubility thermodynamic [µM] |
| --- | --- |
| O=C(Nc1ccc(N2CCOCC2)nc1)c1nnc(Nc2ccc(Cl)cc2)o1 | 1 (≈ 0.401 µg/mL) |
| CCCCOc1ccc(-c2cc(=O)c3ccccc3[nH]2)cc1 | 1.6 (≈ 0.469 µg/mL) |
| COc1cc2ncnc(Nc3cccc(Cl)c3F)c2cc1CN(C(C)C)[C@@H](C)C(N)=O | 1 (≈ 0.446 µg/mL) |
| CC(C)(C)OC(=O)N1CCN(c2ccc(OCc3ccc(S(C)(=O)=O)cc3)cn2)CC1 | 1 (≈ 0.448 µg/mL) |
| C[C@H]1CN(C(=O)OC(C)(C)C)CCN1c1ncc(OCc2ccc(S(C)(=O)=O)cc2)cn1 | 2.3 (≈ 1.06 µg/mL) |
| C[C@H]1CN(c2ncc(OCc3ccc(S(C)(=O)=O)cc3)cn2)CCN1C(=O)OC(C)(C)C | 2.2 (≈ 1.02 µg/mL) |
| C[C@@H]1CN(c2ncc(OCc3ccc(S(C)(=O)=O)cc3)cn2)[C@@H](C)CN1C(=O)OC(C)(C)C | 0.9 (≈ 0.429 µg/mL) |
| C[C@@H]1CN(C(=O)OC(C)(C)C)CCN1c1ncc(OCc2ccc(S(C)(=O)=O)cc2F)cn1 | 2.2 (≈ 1.06 µg/mL) |
| Cc1cc(CNc2ncc(Br)c(Nc3cc(CCc4ccccc4)[nH]n3)n2)on1 | 1.7 (≈ 0.772 µg/mL) |
| COc1ccccc1NC(=O)c1cc2ccccc2cc1O | 0.9 (≈ 0.264 µg/mL) |
| c1csc(-c2n[nH]c3c2Cc2ccccc2-3)c1 | 0.6 (≈ 0.143 µg/mL) |
| CC(C)(C)CNCCn1c(Sc2nc3cccc(Cl)c3s2)nc2c(N)ncnc21 | 0.5 (≈ 0.224 µg/mL) |
| CN(C)C(=O)[C@H](Cc1ccccc1)NC(=O)c1cc2cc(Br)sc2[nH]1 | 0.9 (≈ 0.378 µg/mL) |
| CN(C)C(=O)[C@H](Cc1ccccc1)NC(=O)c1cc2cc(Cl)sc2[nH]1 | 1.5 (≈ 0.564 µg/mL) |
| CCN1C(=O)C(C)(C)c2cc3[nH]c4c(c3cc21)CCCc1c-4n[nH]c1C | 0.7 (≈ 0.244 µg/mL) |
| O=C(CC(c1ccccc1)S(=O)(=O)c1ccccc1)c1ccccc1 (stereo not drawn) | 1.1 (≈ 0.385 µg/mL) |
| CC(C)CC(C(=O)NCC(=O)CNS(=O)(=O)c1ccccn1)c1cccc(-c2ccccc2)c1 (stereo not drawn) | 1.2 (≈ 0.576 µg/mL) |
| Cc1c(Cl)c(C(F)(F)F)nn1CC(=O)N1CCN(c2ccc(F)cc2)CC1 | 1.9 (≈ 0.769 µg/mL) |
| CS(=O)(=O)C1(c2cc(N3CCOCC3)nc(-c3cccc4[nH]ccc34)n2)CCOCC1 | 1.8 (≈ 0.797 µg/mL) |
| CC(C)S(=O)(=O)C1(c2cc(N3CCOCC3)nc(-c3cccc4[nH]ccc34)n2)CC1 | 1.5 (≈ 0.64 µg/mL) |
| c1ccc(NCc2ccc(CNc3ccccn3)cc2)nc1 | 0.9 (≈ 0.261 µg/mL) |
| Cc1cc(C)cc(-c2[nH]c3sc(C(C)(C)C(=O)N4C5CCC4CC5)cc3c2CCN2CCC(CC(=O)N3CCOCC3)CC2)c1 | 1.9 (≈ 1.2 µg/mL) |
| CNC(=O)[C@@H](C)Oc1cccc2ncnc(Nc3ccc4c(cnn4Cc4nccs4)c3)c12 | 1.3 (≈ 0.597 µg/mL) |
| Clc1cc(Nc2ncnc3[nH]nc(OCCN4CCOCC4)c23)ccc1OCc1ccccn1 | 2 (≈ 0.964 µg/mL) |

| SMILES | solubility thermodynamic [µM] |
| --- | --- |
| Cc1cc(C)cc(-c2[nH]c3ccc(C(C)(C)C(=O)N4C5CCC4CC5)cc3c2CCN(C)CCCCc2ccncc2)c1 | 0.9 (≈ 0.519 µg/mL) |
| COc1cc2c(Nc3ccc(Cc4ccccc4)cc3)c(C#N)cnc2cc1OCCCN1CCOCC1 | 0.6 (≈ 0.305 µg/mL) |
| COCCNS(=O)(=O)c1ccc(Nc2nccc(-c3cnc4ccccn34)n2)cc1 | 0.7 (≈ 0.297 µg/mL) |
| COc1cc2ncnc(Nc3ccc4c(ccn4Cc4ccccc4)c3)c2cc1OC | 0.6 (≈ 0.246 µg/mL) |
| COc1cc2ncc(C#N)c(Nc3ccc(Oc4ccccc4)cc3)c2cc1OC | 1.4 (≈ 0.556 µg/mL) |
| CN(C)C(=O)[C@H](Cc1ccccc1)NC(=O)c1cc2cc(Br)ccc2[nH]1 | 1 (≈ 0.414 µg/mL) |
| COc1cc2c(Nc3ccc(Cl)cc3F)ncnc2cc1OCCn1ccnn1 | 1.5 (≈ 0.622 µg/mL) |
| CCN(C(=O)Cc1ccc(S(C)(=O)=O)cc1)C1CCN(CCC(c2ccccc2)c2ccc(NS(=O)(=O)Cc3ccccc3)cc2)CC1 (stereo not drawn) | 2.3 (≈ 1.58 µg/mL) |
| COc1cc2c(Nc3ncc(CC(=O)Nc4cccc(F)c4)s3)ncnc2cc1OCCCN1CCN(C)CC1 | 1.8 (≈ 1.02 µg/mL) |
| Cc1cc(C)cc(-c2[nH]c3sc(C(C)(C)C(=O)N4C5CCC4CC5)cc3c2[C@H](C)CNC(=O)N2CCC(c3ccncc3)CC2)c1 | 0.6 (≈ 0.383 µg/mL) |
| Cc1cc(C)cc(-c2[nH]c3sc(C(C)(C)C(=O)N4C5CCC4CC5)cc3c2CN2CCN(CC(=O)N3CCCC3)CC2)c1 | 1.7 (≈ 1.02 µg/mL) |
| Cc1ccc(Oc2ccc(Nc3ncnc4cccc(O[C@H](C)C(=O)N5CCOCC5)c34)cc2Cl)cn1 | 2.3 (≈ 1.2 µg/mL) |
| CNC(=O)[C@@H](C)Oc1cccc2ncnc(Nc3ccc(OCc4ccccn4)c(Cl)c3)c12 | 1.6 (≈ 0.742 µg/mL) |
| COc1cc2c(Nc3ccc(Oc4ccccc4)cc3)c(C#N)cnc2cc1OCCCN1CCOCC1 | 0.9 (≈ 0.46 µg/mL) |
| COc1cc2ncnc(Nc3cc(O)c(C)cc3F)c2cc1OC | 2.2 (≈ 0.725 µg/mL) |
| CCOC(=O)C1CCN(c2ncnc(Oc3ccc(CCC(C)=O)cc3)c2[N+](=O)[O-])CC1 | 1.9 (≈ 0.841 µg/mL) |
| NC(=O)Nc1sc(-c2ccccc2)cc1C(=O)Nc1ccccc1 | 0.6 (≈ 0.202 µg/mL) |
| CS(=O)(=O)c1cccc(CNc2nc(Nc3ccc4c(c3)CCC(=O)N4)ncc2C(F)(F)F)c1 | 0.5 (≈ 0.246 µg/mL) |
| NC(=O)Nc1sc(-c2ccccc2)cc1C(=O)NCc1ccccc1 | 0.8 (≈ 0.281 µg/mL) |
| COc1cc(-c2cnc(N)c(-c3nc4ccccc4[nH]3)c2)cc(OC)c1OC | 0.5 (≈ 0.188 µg/mL) |
| NC(=O)c1ccccc1NC(=O)Nc1ccc(Cl)c(Cl)c1 | 1.5 (≈ 0.486 µg/mL) |
| Nc1nc(Nc2ccc(Cl)cc2)cc(-c2ccccc2)n1 | 2.2 (≈ 0.653 µg/mL) |
| CC#CC(=O)Nc1ccc2ncnc(Nc3cccc(Br)c3)c2c1 | 0.8 (≈ 0.305 µg/mL) |
| c1ccc(-c2cnn3cc(-c4ccncc4)cnc23)cc1 | 0.9 (≈ 0.245 µg/mL) |

— ChEMBL document CHEMBL3301361, “Experimental in vitro DMPK and physicochemical data on a set of publicly disclosed compounds”
